Consider 14 compounds from US9822414B2, “In vitro method for predicting in vivo genotoxicity of chemical compounds” (priority 2011, dated 2017).

Where “and” joins values, the source holds several entries; their conditions need not be identical. Equal values may be shown once. Read-outs that look alike come from different tables or passages of the source.

One data set concerns rodents. The settings on record: cited from earlier work.
In the next data set the test system is C10orf65/HOGA1. As to the kind of experiment: Gene expression of C10orf65/HOGA1 in HepG2 cells exposed to compound (microarray, log2 treatment:control ratio). Format: cell-based, human. Particulars: for C10orf65/HOGA1: expression versus reference value, single measurement of three.
In data set [1] the test system is conventional in vitro genotoxicity assays. Particulars: cited from earlier work.
The subject of the next data set is SLC40A1. As to the kind of experiment: Gene expression of SLC40A1 in HepG2 cells exposed to compound (microarray, log2 treatment:control ratio). Format: cell-based, human. Particulars: HepG2 cells; for SLC40A1: expression versus reference value, single measurement of three.
The next data set relates to Salmonella typhimurium. The settings on record: cited from earlier work.
Another data set concerns PNMA6A. As to the kind of experiment: Gene expression of PNMA6A in HepG2 cells exposed to compound (microarray, log2 treatment:control ratio). The class given is cell-based, human. The settings on record: HepG2 cells; for PNMA6A: expression versus reference value, single measurement of three.
The mark [2] stands for this setting: standard in vivo genotoxicity designation.
Setting [3] is: 24 h exposure, Ames negative compounds, one line per replicate of triplicate experiments.

With `CC(=O)Nc1ccc(O)cc1` [APAP], in the data set with rodents (in vivo), the “In vivo GTX” value is given as “+” and the Standard result is reported as “GTX”. Besides, the C10orf65/HOGA1 entry with C10orf65/HOGA1 is “− (below the reference value)”. Moreover, in data set [1], the “In vitro GTX” value is reported as “+”. The SLC40A1 entry in the data set on SLC40A1 is “− (below the reference value)”. Further, the Ames result in the data set on Salmonella typhimurium (Ames results based on NTP data) is on record as “−”.

Turning to `c1ccc2c(c1)cc1ccc3cccc4ccc2c1c34` [BaP], the “In vivo GTX” value in the data set on rodents (in vivo) was “+”. Also, in data set [1], the “In vitro GTX” value is “+”.

With `ClC(Cl)(Cl)Cl` [CCI4], the Standard entry in the data set with rodents (setting [2]) was “NGTX”. In addition, in the data set on SLC40A1, the SLC40A1 entry is “− (below the reference value)”.

As to `CN(C)N=O` [DMN], in the data set on rodents (in vivo), the “In vivo GTX” value is “+” and the “Standard (in vivo genotoxicity designation)” value is “GTX”. Moreover, the “In vitro GTX” value in data set [1] is reported as “+”. Besides, in the data set on HepG2 cell, the “Average result over three measurements” value is on record as “GTX” and the “Prediction (class prediction results using the method of the invention)” value (from here on “Prediction”) is reported as “GTX+”. In the data set on Salmonella typhimurium, the Ames entry was “+”.

Consider `O=C(O)Cc1ccccc1Nc1c(Cl)cccc1Cl` [Diclo], for which, in the data set with rodents (in vivo), the Standard result is “NGTX”. Further, the C10orf65/HOGA1 result with C10orf65/HOGA1 is recorded as “− (below the reference value)”. Moreover, the SLC40A1 result in the data set on SLC40A1 was “− (below the reference value)”.

As to `ClC1C(Cl)C(Cl)C(Cl)C(Cl)C1Cl` (stereo not shown) [HCH], the Standard result in the data set with rodents (in vivo) is reported as “NGTX”. Also, the “Log2 treatment: control ratio C10orf65/HOGA1” value in the data set with C10orf65/HOGA1 (setting [3]) is −0.367 and −0.143 and −0.165. Moreover, the C10orf65/HOGA1 entry in the data set with C10orf65/HOGA1 was “− (below the reference value)”. Besides, the “Log2 treatment: control ratio SLC40A1” value in the data set on SLC40A1 (setting [3]) was 0.334 and 0.924 and 0.712. Further, the SLC40A1 result with SLC40A1 is “+ (above the reference value)”. In the data set on HepG2 cell, the “At least ⅔ genes +?” value is on record as “NGTX”, the “Average result over three measurements” value is on record as “NGTX” and the “Prediction” value was “NGTX”. In addition, the “Log2 treatment: control ratio PNMA6A” value with PNMA6A (setting [3]) is −0.604 and −0.2 and 0.012. In addition, the PNMA6A result in the data set with PNMA6A is given as “− (below the reference value)”.

For `CO[C@@]12[C@H](COC(N)=O)C3=C(C(=O)C(C)=C(N)C3=O)N1C[C@@H]1N[C@@H]12` [MMC], the “In vivo GTX” value in the data set on rodents (in vivo) was “+”.

With `O=[N+]([O-])c1ccccc1` [NBZ], in the data set on rodents (in vivo), the “In vivo GTX” value is reported as “−” and the Standard result is recorded as “NGTX”. Moreover, in data set [1], the “In vitro GTX” value was “−”. Also, the SLC40A1 entry in the data set with SLC40A1 is given as “− (below the reference value)”.

Take `Oc1c(Cl)c(Cl)c(Cl)c(Cl)c1Cl` [PCP]: the Standard entry in the data set on rodents (setting [2]) is “NGTX”. In addition, the C10orf65/HOGA1 entry in the data set with C10orf65/HOGA1 is reported as “− (below the reference value)”. The PNMA6A result with PNMA6A is “− (below the reference value)”.

Take `CC(=O)[C@H]1CC[C@H]2[C@@H]3CCC4=CC(=O)CC[C@]4(C)[C@H]3CC[C@]12C` [Prog]: in the data set on rodents (in vivo), the “In vivo GTX” value is “−” and the Standard result is “NGTX”. Moreover, the SLC40A1 result in the data set on SLC40A1 was “− (below the reference value)”. In the data set on PNMA6A, the PNMA6A result is listed as “− (below the reference value)”.

For the compound `Cc1noc(NS(=O)(=O)c2ccc(N)cc2)c1C` [Sulfi], in the data set with rodents (in vivo), the “In vivo GTX” value is on record as “−” and the Standard entry is recorded as “NGTX”. Moreover, in the data set with C10orf65/HOGA1, the C10orf65/HOGA1 entry was “− (below the reference value)”. The PNMA6A result in the data set on PNMA6A is “− (below the reference value)”.

Take `O=C1O[C@H]([C@@H](O)CO)C(O)=C1O` [VitC]: the “In vivo GTX” value in the data set with rodents (positive when at least one in vivo assay (MN, CA) positive, equivocal considered positive) is “+”. Further, in the data set with rodents (setting [2]), the Standard result was “GTX”. Also, the C10orf65/HOGA1 result in the data set on C10orf65/HOGA1 was “+ (above the reference value)”. Further, in the data set with HepG2 cell, the “At least ⅔ genes +?” value was “GTX”, the “Average result over three measurements” value was “GTX” and the “Prediction” value is listed as “GTX”. Besides, the PNMA6A result in the data set with PNMA6A is given as “+ (above the reference value)”.

As for `CC1(C)S[C@@H]2[C@H](NC(=O)[C@H](N)c3ccccc3)C(=O)N2[C@H]1C(=O)O.O.O.O` [ampC], the Standard result in the data set on rodents (setting [2]) is “NGTX”. The C10orf65/HOGA1 result with C10orf65/HOGA1 is listed as “− (below the reference value)”. For the same compound, the SLC40A1 entry with SLC40A1 is reported as “− (below the reference value)”.

Consider `Cl[C@H]1[C@H](Cl)[C@@H](Cl)[C@@H](Cl)[C@H](Cl)[C@H]1Cl` [γ-HCH], for which the “In vivo GTX” value with rodents (in vivo) is recorded as “−”. Further, in data set [1], the “In vitro GTX” value is “−”. Also, in the data set with Salmonella typhimurium, the Ames result is recorded as “−”.
